US6545131B1, “Tissue specific prodrug” (priority 1997, dated 2003)
Starred links: 1 amine or outer side, 2 acyl side, 3 side chain; linkers in the order of their positions; H or OH if unused. Residues, ends and D or L forms follow the SMILES beside them. *: point of attachment. Mu = morpholinocarbonyl, O=C(N1CCOCC1)*; AMC = Cc1cc(=O)oc2cc(N*)ccc12; Morpholide = C1CN(*)CCO1; CO = O=C([*:1])[*:2]

Legend:
TSU-Pr1 cells = assay: Clonogenic survival of TSU-Pr1 cells after 72 hours exposure to TG analogs; assay type: cell-based, human; conditions: TSU-Pr1, 72 hours exposure; mean (n=5) ± standard error; read-out: LC50 (concentration needed to kill 50% of clonogenic cells)
Procedure: The primary amine-containing thapsigargin analogs of the invention have non-specific toxicity toward cells. This toxicity is measured as the concentration of analog needed to kill 50% of clonogenic cells (LC50). The LC50 of the analogs of the invention is desirably at most 20 μM, preferably at most 5 μM, and more preferably at most 500 nM of analog.
Percentage clonogenic survival of TSU-Pr1 (2×10^5 cells) following 72 hours of exposure to varying concentrations of TG analogs was performed as described in Martikainen et al. Cancer Res., 51, 4693-4700 (1991).
The IC50 results are mean (n=3)±standard error. The LC50 results are mean (n=5)±standard error. The entry “ND” stands for “not determined”. Clonogenic survival not determined above 10 μM for dBTG. Analogs with −boc have a t-butoxycarbonyl (boc) protected amino group.
The androgen responsive PSA-producing LNCaP and androgen independent PSA non-producing TSU-Pr1 are human prostate cancer lines were obtained from ATCC (Rockville, Md.) and maintained by serial passage in RPMI 1640 media containing 10% fetal calf serum with 100 units/ml penicillin G, and 100 units/ml streptomycin sulfate (antibiotics from M.A. Bioproducts, Walkerville, Md.) as standard media in 5% CO2/95% air at 37° C. The origins and characteristics of the LNCaP and TSU-Pr1 cell lines are described in Horoszewicz, et al., Cancer Res., 43:1809-1818, (1980)and Iizumi, et al., J. Urol, 137: 1304-1306, (1987).

[1] = Stability of PSA substrates in serum (AMC release); assay type: in vitro ADME; conditions: 0.2 mM substrate
Text: (§1) PSA was purified from human seminal plasma as described in Christensson, et al. Eur. J. Biochem. 194:755-765, (1990). Plasmin, urokinase, tissue plasminogen activator (TPA), human plasma and porcine pancreatic kallikrein and a 1-antichymotrypsin were obtained from Calbiochem (San Diego, Calif.). All other proteases were obtained from Sigma Chemical Co. (St. Louis, Mo.). Mouse serum was obtained from East Acres Biologicals (South Bridge, Mass.). Goat and calf sera were obtained from Gibco BRL (Grand Island, N.Y.). Rat serum was obtained in-house from sacrificed animals. Human serum was obtained from volunteers.
(§2) Cleavage was studied by measuring fluorescence change secondary to AMC release. Fluorescence detection was carried out with a Fluoroskan II 96 well fluorometric plate reader (ICN Biomedicals, Costa Mesa, Calif.), with excitation wavelength 355 nm and emission wavelength 460 nm. Data were collected and analyzed using Deltasoft III software (Biometallics, Princeton, N.J.). All reactions were performed at room temperature by the addition of substrate and proteases into PSA buffer, described below, in a final volume of 200 μL. The results were determined from the initial linear increase of fluorescence and were expressed as the picomoles of AMC released per minute based upon comparison to a standard curve of the fluorescence of known amounts of AMC (i.e., fluorescence was linear form 20 to 300 picomoles of AMC). The data were analyzed by Lineweaver-Burke reciprocal plots to determine the Michaelis-Menten constant (i.e., Km) expressed as the amount of substrate needed to saturate half of the enzyme and the catalytic rate constant (i.e., kcat) expressed as the amount of substrate converted to product per time per amount of enzyme.
Because the prodrug can be given systemically via the blood, it is useful to determine the stability of the substrates in sera from a variety of species. The substrates and experimental details are found as described in Example 1.
The amino acid sequences expressed in one letter amino acid code represent the following amino acid sequences in the three letter amino acid code: EHSSKLQ (Glu-His-Ser-Ser-Lys-Leu-Gln; SEQ ID NO:10), QNKISYQ (Gln-Asn-Lys-Ile-Ser-Tyr-Gln; SEQ ID NO:11), ENKISYQ (Glu-Asn-Lys-Ile-Ser-Tyr-Gln; SEQ ID NO:12) and ATKSKQH (Ala-Thr-Lys-Ser-Lys-Gln-His; SEQ ID NO:13). Determinations listed in the table were carried out with substrates at 0.2 mM concentration in the PSA assay buffer (50 mM Tris/0.1M NaCl pH 7.8). AMC is 7-amino-4-methylcoumarin. The human serum used was 100% for each assay. The entry “UD” stands for “undetectable”, and means that not more than 0.01 picomole of substrate per minute was cleaved.

[2] = molecular target: T1, PSA (prostate specific antigen) (Homo sapiens, UniProt P07288); assay: Cleavage of AMC-labelled peptide substrates by purified PSA (fluorescence of released AMC; Lineweaver-Burke kinetics); assay type: biochemical; conditions: 0.2 mM substrate
T1 construct: PSA was purified from human seminal plasma; from tissue; host or cells: human seminal plasma
T1 sequence (P07288 25-261): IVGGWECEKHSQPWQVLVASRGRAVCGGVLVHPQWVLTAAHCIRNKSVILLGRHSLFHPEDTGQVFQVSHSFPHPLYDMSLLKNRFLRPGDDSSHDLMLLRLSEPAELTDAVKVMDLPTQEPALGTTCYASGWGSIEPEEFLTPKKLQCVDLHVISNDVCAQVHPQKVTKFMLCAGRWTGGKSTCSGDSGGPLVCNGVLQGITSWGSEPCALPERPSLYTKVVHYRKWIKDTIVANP
Procedure: (§3) The peptides discussed herein were custom synthesized by Enzyme Systems Products (Dublin, Calif.) and, after HPLC separation and purification to >95%, the molecular weights were confirmed by mass spectroscopy. All peptides had morpholinocarbonyl protecting the amino terminus and 7-amino-4-methylcoumarin (AMC) attached via an amide bond to the carboxyl group of the carboxy-terminal amino acid. Peptides were first dissolved in distilled water (5 mM) and then diluted into PSA assay buffer (50 mM Tris/0.1M NaCl pH 7.8). The glutamine-AMC peptide had the amino terminus and side chain amine unprotected and was obtained from Bachem (Torrance, Calif.).
as §1, §2
(§4) Each assay contains 200 picomoles of the particular protease and 0.2 mM concentration of the particular substrate (i.e., 40,000 picomoles/200 μL of assay volume). The amino acid sequences expressed in one letter amino acid code represent the following amino acid sequences in the three letter amino acid code: EHSSKLQ (Glu-His-Ser-Ser-Lys-Leu-Gln; SEQ ID NO:10), QNKISYQ (Gln-Asn-Lys-Ile-Ser-Tyr-Gln; SEQ ID NO:11), ENKISYQ (Glu-Asn-Lys-Ile-Ser-Tyr-Gln; SEQ ID NO:12), and ATKSKQH (Ala-Thr-Lys-Ser-Lys-Gln-His; SEQ ID NO:13). Determinations listed in the table were carried out with substrates at 0.2 mM concentration in the PSA assay buffer (50 mM Tris/0.1M NaCl pH 7.8). The entry “UD” stands for “undetectable” and means that at most, 0.1 pmole of substrate cleavage per minute per 200 pmole protease took place. Asterisks represent experiments not performed. Abbreviations are as follows: PSA (prostate specific antigen), Chymo (chymotrypsin), Urokin (urokinase), TPA (tissue plasminogen activator), Thromb (thrombin), Kallik (human kallikrein, hK1).
The data in Table 2 are the results of kinetic experiments with the peptide substrates used in Example 1. Experimental details are found in Example 1.
The amino acid sequences expressed in one letter amino acid code represent the following amino acid sequences in the three letter amino acid code: EHSSKLQ (Glu-His-Ser-Ser-Lys-Leu-Gln; SEQ ID NO:10), HSSKLQ (His-Ser-Ser-Lys-Leu-Gln; SEQ ID NO:7), SKLQ (Ser-Lys-Leu-Gln; SEQ ID NO:1), and ATKSKQH (Ala-Thr-Lys-Ser-Lys-Gln-His; SEQ ID NO:13). […]

chymotrypsin = molecular target: T2, chymotrypsin (Bos taurus, UniProt P00766); assay: Peptide-AMC cleavage by purified extracellular protease; assay type: biochemical; conditions: 0.2 mM substrate, PSA assay buffer pH 7.8
T2 construct: purchased Sigma Chemical Co
Procedure: as §3, §1, §2, §4

Plasmin = molecular target: T3, Plasmin (Homo sapiens, UniProt P00747); assay: as above; assay type: biochemical; conditions: 0.2 mM substrate, PSA assay buffer pH 7.8
T3 construct: purchased Calbiochem
T3 sequence (P00747 581-810 limits assumed, species assumed): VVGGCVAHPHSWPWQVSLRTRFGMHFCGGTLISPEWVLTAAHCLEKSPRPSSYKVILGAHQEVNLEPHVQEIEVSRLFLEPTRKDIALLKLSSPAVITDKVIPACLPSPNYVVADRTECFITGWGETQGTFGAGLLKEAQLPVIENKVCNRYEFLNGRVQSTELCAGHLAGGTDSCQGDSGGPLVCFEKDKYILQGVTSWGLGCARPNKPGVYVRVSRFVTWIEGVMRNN
T3 sequence (P00747 97-580 partner limits assumed, species assumed): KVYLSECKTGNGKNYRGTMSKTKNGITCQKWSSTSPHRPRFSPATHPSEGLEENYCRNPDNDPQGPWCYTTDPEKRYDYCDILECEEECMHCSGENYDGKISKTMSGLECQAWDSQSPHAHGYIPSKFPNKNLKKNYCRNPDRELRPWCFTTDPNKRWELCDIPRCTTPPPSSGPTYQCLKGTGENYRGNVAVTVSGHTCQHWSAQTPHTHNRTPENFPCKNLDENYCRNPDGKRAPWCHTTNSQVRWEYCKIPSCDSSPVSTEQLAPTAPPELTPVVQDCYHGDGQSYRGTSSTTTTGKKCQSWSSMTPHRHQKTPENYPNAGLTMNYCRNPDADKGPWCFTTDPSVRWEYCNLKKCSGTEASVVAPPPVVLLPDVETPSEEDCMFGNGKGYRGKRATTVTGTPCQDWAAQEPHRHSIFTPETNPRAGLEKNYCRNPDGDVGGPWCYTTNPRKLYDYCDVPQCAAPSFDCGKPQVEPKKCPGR
Procedure: as §3, §1, §2, §4

Trypsin = assay: as above; assay type: biochemical; conditions: 0.2 mM substrate, PSA assay buffer pH 7.8
Procedure: as §3, §1, §2, §4

thrombin = molecular target: T4, thrombin (Homo sapiens, UniProt P00734); assay: as above; assay type: biochemical; conditions: 0.2 mM substrate, PSA assay buffer pH 7.8
T4 construct: purchased Sigma Chemical Co
Procedure: as §3, §1, §2, §4

[3] = molecular target: T5, tissue plasminogen activator (TPA) (Homo sapiens, UniProt P00750); assay: as above; assay type: biochemical; conditions: 0.2 mM substrate, PSA assay buffer pH 7.8
T5 construct: purchased Calbiochem
T5 sequence (P00750 36-562, species assumed): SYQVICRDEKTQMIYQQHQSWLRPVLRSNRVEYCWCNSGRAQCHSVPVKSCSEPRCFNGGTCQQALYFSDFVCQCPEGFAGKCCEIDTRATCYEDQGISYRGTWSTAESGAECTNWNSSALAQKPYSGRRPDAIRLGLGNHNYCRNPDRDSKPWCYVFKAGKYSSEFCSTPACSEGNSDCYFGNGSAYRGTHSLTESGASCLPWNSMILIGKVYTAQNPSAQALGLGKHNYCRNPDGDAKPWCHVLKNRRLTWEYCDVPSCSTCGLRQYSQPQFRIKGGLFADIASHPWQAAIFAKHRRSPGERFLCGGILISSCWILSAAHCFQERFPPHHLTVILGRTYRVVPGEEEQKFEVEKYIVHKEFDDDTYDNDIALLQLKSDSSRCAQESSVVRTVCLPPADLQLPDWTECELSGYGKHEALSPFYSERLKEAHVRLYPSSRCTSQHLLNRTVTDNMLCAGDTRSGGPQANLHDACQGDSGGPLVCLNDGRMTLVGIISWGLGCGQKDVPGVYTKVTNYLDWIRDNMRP
Procedure: as §3, §1, §2, §4

Elastase = assay: as above; assay type: biochemical; conditions: 0.2 mM substrate, PSA assay buffer pH 7.8
Procedure: as §3, §1, §2, §4

Cathepsin C = molecular target: T6, Cathepsin C (Homo sapiens, UniProt P53634); assay: PSA substrate cleavage by purified intracellular protease; assay type: biochemical; conditions: 0.2 mM substrate, pH 7.8; SKLQ, KLQ, LQ in 1.4% acetonitrile/buffer, Q-AMC in 0.2% formic acid/buffer
T6 construct: purchased Sigma Chemical Co
T6 sequence (P53634 25-463): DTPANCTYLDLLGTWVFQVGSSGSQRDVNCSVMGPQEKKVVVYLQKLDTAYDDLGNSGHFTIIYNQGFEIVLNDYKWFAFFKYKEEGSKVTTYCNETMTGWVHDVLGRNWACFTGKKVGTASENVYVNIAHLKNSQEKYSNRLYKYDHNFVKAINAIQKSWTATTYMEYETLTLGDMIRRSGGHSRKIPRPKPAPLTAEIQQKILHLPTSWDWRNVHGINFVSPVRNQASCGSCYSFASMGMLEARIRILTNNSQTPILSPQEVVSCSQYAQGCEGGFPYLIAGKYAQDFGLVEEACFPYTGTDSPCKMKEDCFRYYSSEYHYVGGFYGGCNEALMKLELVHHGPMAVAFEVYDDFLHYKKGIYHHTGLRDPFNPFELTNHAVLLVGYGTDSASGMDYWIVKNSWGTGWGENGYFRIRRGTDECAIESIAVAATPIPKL
Procedure: as §2
(§5) A family of peptide substrates based upon the EHSSKLQ (SEQ ID NO:10) sequence was assayed for activity for the intracellular proteases, and the results given in Table 4.
(§6) The amino acid sequences expressed in one letter amino acid code represent the following amino acid sequences in the three letter amino acid code: EHSSKLQ (Glu-His-Ser-Ser-Lys-Leu-Gln; SEQ ID NO:10), The shorter sequences are formed by deleting amino acids from the amino terminal side of the sequence. Determinations listed in the table were carried out with substrates at 0.2 mM concentration in the PSA assay buffer (50 mM Tris/0.1M NaCl pH 7.8), except SKLQ (SEQ ID NO:1), KLQ and LQ, which were carried out in 1.4% acetonitrile/buffer and Q-AMC which was carried out in 0.2% formic acid/buffer, at pH 7.8. The entry “UD” stands for “undetectable” and means that at most, 0.1 pmole of substrate cleavage per minute per 200 pmole protease took place. Asterisks represent experiments not performed. Abbreviations are as follows: PSA (prostate specific antigen), Cath B, C, D (Cathepsins, B, C, D), Esterase (porcine liver esterase).

Cathepsin B = molecular target: T7, Cathepsin B (Homo sapiens, UniProt P07858); assay: as above; assay type: biochemical; conditions: 0.2 mM substrate, pH 7.8; SKLQ, KLQ, LQ in 1.4% acetonitrile/buffer, Q-AMC in 0.2% formic acid/buffer
T7 construct: purchased Sigma Chemical Co
Procedure: as §2, §5, §6

porcine liver esterase = assay: as above; assay type: biochemical; conditions: 0.2 mM substrate, pH 7.8; SKLQ, KLQ, LQ in 1.4% acetonitrile/buffer, Q-AMC in 0.2% formic acid/buffer
Procedure: as §2, §5, §6

“8-O-(2-[4-t-butoxycarbonylaminophenyl]acetyl)-8-O-debutanoylthapsigargin [AAT-boc]” showed a CC50 (TSU-Pr1 cells) greater than 10 µM.

`C/C=C(/C)C(=O)OC1C(C)=C2C(C1OC(=O)CCCCCCC)C(C)(OC(C)=O)CC(OC(=O)Cc1ccc(N)cc1)C1(O)C2OC(=O)C1(C)O` (centres unmarked) [AAT, 8-O-(2-[4-aminophenyl]acetyl)-8-O-debutanoylthapsigargin] showed a CC50 (TSU-Pr1 cells) greater than 10 µM.

`C/C=C(/C)C(=O)OC1C(C)=C2C(C1OC(=O)CCCCCCC)C(C)(OC(C)=O)CC(OC(=O)c1ccc(NC(=O)OC(C)(C)C)cc1)C1(O)C2OC(=O)C1(C)O` (centres unmarked) [ABT-boc, 8-O-(4-t-butoxycarbonylaminobenzoyl)-8-O-debutanoylthapsigargin] showed a CC50 (TSU-Pr1 cells) of 12 ± 0.3 µM.

In the case of `CC[C@H](C)[C@H](NC(=O)[C@H](CCCCN)NC(=O)[C@H](CC(N)=O)NC(=O)[C@H](CCC(N)=O)NC(=O)N1CCOCC1)C(=O)N[C@@H](CO)C(=O)N[C@@H](Cc1ccc(O)cc1)C(=O)N[C@@H](CCC(N)=O)C(=O)Nc1ccc2c(C)cc(=O)oc2c1` [QNKISYQ, Gln-Asn-Lys-Ile-Ser-Tyr-Gln] ({Morpholide-CO}-QNKISYQ-{AMC}), the “picomles AMC released/minute: Calf” value [1] is reported as “UD (not more than 0.01 picomole of substrate per minute was cleaved)”, the “picomles AMC released/minute: Fetal Calf” value [1] is reported as 11.60 picomoles/minute and the “picomles AMC released/minute: Goat” value [1] is reported as 5.54 picomoles/minute. For the same compound, the “picomles AMC released/minute: Mouse” value [1] was 1.67 picomoles/minute, the “picomles AMC released/minute: Rat” value [1] was 10.7 picomoles/minute and the “picomles AMC released/minute: Human” value ([1]; human serum 100%) was 1.54 picomoles/minute. The “Picomoles of substrate cleaved/minute/200 pmoles of indicated protease: PSA” value ([2]; PSA assay buffer pH 7.8, room temperature) was 16.8 picomoles/minute/200 pmoles pr, the “Picomoles of substrate cleaved/minute/200 pmoles of indicated protease: Chymo” value (chymotrypsin) was 9.0 picomoles/minute/200 pmoles pr and the “Picomoles of substrate cleaved/minute/200 pmoles of indicated protease: Plasmin” value (Plasmin) was “UD (at most, 0.1 pmole of substrate cleavage per minute per 200 pmole protease took place)”. The “Picomoles of substrate cleaved/minute/200 pmoles of indicated protease: Trypsin” value (Trypsin) was “UD (at most, 0.1 pmole of substrate cleavage per minute per 200 pmole protease took place)”, the “Picomoles of substrate cleaved/minute/200 pmoles of indicated protease: Thromb” value (thrombin) was 0.4 picomoles/minute/200 pmoles pr and the “Picomoles of substrate cleaved/minute/200 pmoles of indicated protease: TPA” value [3] was 0.4 picomoles/minute/200 pmoles pr. The “Picomoles of substrate cleaved/minute/200 pmoles of indicated protease: Elastase” value (Elastase) was 9.0 picomoles/minute/200 pmoles pr.

With “KLQ: shorter sequence formed by deleting amino acids from the amino terminal side of EHSSKLQ; AMC substrate (Mu-Lys-Leu-Gln-{AMC}; also: AMC substrate)” the “picomoles of peptide cleaved/min/200 picomoles protease: Cath C” value (Cathepsin C) was “UD (at most, 0.1 pmole of substrate cleavage per minute per 200 pmole protease took place)”, the “picomoles of peptide cleaved/min/200 picomoles protease: Cath B” value (Cathepsin B) was 87.0 picomoles/min/200 picomoles pr and the “picomoles of peptide cleaved/min/200 picomoles protease: Esterase” value (porcine liver esterase) was “UD (at most, 0.1 pmole of substrate cleavage per minute per 200 pmole protease took place)”. The “picomoles of peptide cleaved/min/200 picomoles protease: PSA” value ([2]; pH 7.8, SKLQ, KLQ, LQ in 1.4% acetonitrile/buffer, Q-AMC in 0.2% formic acid/buffer) was 0.4 picomoles/min/200 picomoles pr.
